These results are taken from patent US20140080810A1 (Exelixis, Inc., priority 2010, published 2014).

Some results are limits rather than exact numbers.

The target of assay [1] is mTOR/GbL/Raptor (mTORC1) (Homo sapiens, UniProt P42345). Nature of the assay: mTOR/GbL/Raptor (mTORC1) ELISA Assay. The following applies: 4E-BP1 phosphorylation, 0.2 nM mTORC1, 10 μM ATP; last bin: >= 2,000 nM or not active under the conditions the assay was run; read-out: IC50 in this assay (mTORC1). In kind it is biochemical. On the procedure:
The measurement of mTORC1 enzyme activity was performed in an ELISA assay format following the phosphorylation of 4E-BP1 protein. All experiments were performed in the 384-well format. Generally, 0.5 μL DMSO containing varying concentrations of the test Compound was mixed with 15 μL enzyme solution. Kinase reactions were initiated with the addition of 15 μL of substrates-containing solution. The assay conditions were as follows; 0.2 nM mTORC1, 10 μM ATP and 50 nM NHis-tagged 4E-BPI in 20 mM Hepes, pH 7.2, 1 mM DTT, 50 mM NaCl, 10 mM MnCl2, 0.02 mg/mL BSA, 0.01% CHAPS, 50 mM β-glycerophosphate. Following an incubation of 120 minutes at ambient temperature, 20 μL of the reaction volume was transferred to a Ni-Chelate-coated 384-well plate. The binding step of the 4E-BP1 protein proceeded for 60 minutes, followed by washing 4 times each with 50 μL of Tris-buffered saline solution (TBS). Anti-phospho-4E-BP1 rabbit-IgG (20 μL, 1:5000) in 5% BSA-TBST (0.2% Tween-20 in TBS) was added and further incubated for 60 minutes. Incubation with a secondary HRP-tagged anti-IgG was similarly performed after washing off the primary antibody (4 washes of 50 μL). Following the final wash step with TBST, 20 μL of SuperSignal ELISA Femto (Pierce Biotechnology) was added and the luminescence measured using an EnVision plate reader.

Assay [2] addresses PI3Kα (Homo sapiens, UniProt P42336). Nature of the assay: PI3K Biochemical Assay (ATP consumed, luciferase-luciferin chemiluminescence). The following applies: 1 μM ATP, 10 μM PIP2; last bin: >= 2,000 nM or not active under the conditions the assay was run; read-out: IC50 for PI3Kα in this assay. As to the method: PI3Kα activity is measured as the percent of ATP consumed following the kinase reaction using luciferase-luciferin-coupled chemiluminescence. Reactions were conducted in 384-well white, medium binding microtiter plates (Greiner). Kinase reactions were initiated by combining test compounds, ATP, substrate (PIP2), and kinase in a 20 μL volume in a buffer solution. The standard PI3Kalpha assay buffer is composed 50 mM Tris, pH 7.5, 1 mM EGTA, 10 mM MgCl2, 1 mM DTT and 0.03% CHAPS. The standard assay concentrations for enzyme, ATP, and substrate are 1.5 nM, 1 μM, and 10 μM, respectively. The reaction mixture was incubated at ambient temperature for approximately 2 h. Following the kinase reaction, a 10 μL aliquot of luciferase-luciferin mix (Promega Kinase-Glo) was added and the chemiluminescence signal measured using a Victor2 plate reader (Perkin Elmer). Total ATP consumption was limited to 40-60% and IC50 values of control compounds correlate well with literature references. Substituting PI3Kα with PI3Kβ, PI3Kγ, or PI3Kδ, the inhibitory activity of the compounds for the other isoforms of I3K were measured.

By IC50 is commonly meant the concentration that inhibits the measured activity by half.

Chain of PI3Kα (P42336 whole entry): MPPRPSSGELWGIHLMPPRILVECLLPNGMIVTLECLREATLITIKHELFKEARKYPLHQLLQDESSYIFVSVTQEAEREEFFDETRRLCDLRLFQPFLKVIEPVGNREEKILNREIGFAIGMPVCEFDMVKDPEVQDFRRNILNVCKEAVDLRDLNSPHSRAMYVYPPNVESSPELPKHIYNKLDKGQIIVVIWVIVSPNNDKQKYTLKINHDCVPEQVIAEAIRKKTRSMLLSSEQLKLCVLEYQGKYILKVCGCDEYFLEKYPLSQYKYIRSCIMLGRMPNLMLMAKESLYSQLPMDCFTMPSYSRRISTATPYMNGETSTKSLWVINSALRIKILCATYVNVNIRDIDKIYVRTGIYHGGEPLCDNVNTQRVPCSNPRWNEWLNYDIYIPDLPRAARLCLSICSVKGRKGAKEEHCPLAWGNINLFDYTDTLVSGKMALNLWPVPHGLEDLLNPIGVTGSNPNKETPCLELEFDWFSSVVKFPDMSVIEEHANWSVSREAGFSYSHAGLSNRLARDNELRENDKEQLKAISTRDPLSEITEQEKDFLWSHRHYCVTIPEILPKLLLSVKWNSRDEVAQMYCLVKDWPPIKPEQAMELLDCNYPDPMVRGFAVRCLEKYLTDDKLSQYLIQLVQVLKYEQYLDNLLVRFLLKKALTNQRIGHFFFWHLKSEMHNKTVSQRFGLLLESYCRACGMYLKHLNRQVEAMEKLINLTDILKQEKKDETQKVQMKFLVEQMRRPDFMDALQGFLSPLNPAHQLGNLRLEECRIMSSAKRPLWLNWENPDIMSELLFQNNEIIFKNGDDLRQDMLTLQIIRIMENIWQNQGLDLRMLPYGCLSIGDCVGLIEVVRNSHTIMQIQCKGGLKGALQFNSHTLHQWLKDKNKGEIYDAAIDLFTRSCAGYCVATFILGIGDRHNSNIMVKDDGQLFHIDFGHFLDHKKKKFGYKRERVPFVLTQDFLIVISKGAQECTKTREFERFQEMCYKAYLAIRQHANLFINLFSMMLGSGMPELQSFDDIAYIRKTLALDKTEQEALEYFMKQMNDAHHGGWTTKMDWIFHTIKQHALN
Chain of PI3Kα (P27986 whole entry partner): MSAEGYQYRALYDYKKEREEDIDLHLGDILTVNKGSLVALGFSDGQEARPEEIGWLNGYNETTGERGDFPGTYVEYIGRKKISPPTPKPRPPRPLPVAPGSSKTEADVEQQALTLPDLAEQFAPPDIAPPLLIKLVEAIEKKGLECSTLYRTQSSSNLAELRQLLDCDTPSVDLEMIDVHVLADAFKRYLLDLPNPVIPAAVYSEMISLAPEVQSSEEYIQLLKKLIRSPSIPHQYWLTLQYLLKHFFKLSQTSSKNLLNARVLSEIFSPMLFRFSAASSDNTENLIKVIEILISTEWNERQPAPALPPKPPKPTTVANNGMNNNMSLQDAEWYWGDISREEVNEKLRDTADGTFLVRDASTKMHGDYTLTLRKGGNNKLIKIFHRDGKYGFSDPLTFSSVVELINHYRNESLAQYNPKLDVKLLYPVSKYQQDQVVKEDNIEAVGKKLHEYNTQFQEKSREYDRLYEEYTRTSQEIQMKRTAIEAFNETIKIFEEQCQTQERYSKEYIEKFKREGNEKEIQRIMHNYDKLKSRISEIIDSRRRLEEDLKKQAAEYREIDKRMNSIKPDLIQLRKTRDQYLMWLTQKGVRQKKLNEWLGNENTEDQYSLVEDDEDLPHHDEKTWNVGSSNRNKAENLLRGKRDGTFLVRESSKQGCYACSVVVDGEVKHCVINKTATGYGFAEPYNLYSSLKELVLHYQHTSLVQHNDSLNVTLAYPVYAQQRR

Consider `Cn1cnc2cc(-c3ccc4c(c3)CN(c3ccnc5ccccc35)CCO4)ccc21` [Compound 130, 7-(1-methyl-1H-benzimidazol-5-yl)-4-quinolin-4-yl-2,3,4,5-tetrahydro-1,4-benzoxazepine], for which the half-inhibitory concentration (IC50) was in the range of 250 to 1000 nM in assay [1] and 1000 to 2000 nM in assay [2].
For `CC1(C)CCc2ncnc(N3CCOc4ccc(-c5cnc(N)c(S(=O)(=O)N6CCC(N)C6)c5)cc4C3)c2C1` (stereo not shown) [Compound 445, 3-[(3-aminopyrrolidin-1-yl)sulfonyl]-5-[4-(6,6-dimethyl-5,6,7,8-tetrahydroquinazolin-4-yl)-2,3,4,5-tetrahydro-1,4-benzoxazepin-7-yl]pyridin-2-amine], in assay [1], the IC50 fell in the range of 10 to 50 nM.
Consider `Cc1nc2cc(-c3ccc4c(c3)CN(c3nc(CN(C)C)nc(C)c3C)CCO4)cnc2[nH]1` [Compound 335, 1-{4,5-dimethyl-6-[7-(2-methyl-3H-imidazo[4,5-b]pyridin-6-yl)-2,3-dihydro-1,4-benzoxazepin-4(5H)-yl]pyrimidin-2-yl}-N,N-dimethylmethanamine], for which the 50% inhibitory concentration (IC50) in assay [1] lay within 1000 to 2000 nM.
On the same count and under the same terms, with `CC1(C)CCc2ncnc(N3CCOc4ccc(-c5cnc6c(c5)OCCN6)cc4C3)c2C1` [Compound 569, 7-(3,4-dihydro-2H-pyrido[3,2-b][1,4]oxazin-7-yl)-4-(6,6-dimethyl-5,6,7,8-tetrahydroquinazolin-4-yl)-2,3,4,5-tetrahydro-1,4-benzoxazepine] the figure was 50 to 250 nM.
For `Cc1nc2ccc(-c3ccc4c(c3)CN(c3cc(-c5ccccc5)nc(-c5ccccc5)n3)CCO4)cc2[nH]1` [Compound 7], the half-inhibitory concentration (IC50) in assay [2] is no less than 2000 nM.
Regarding `CC1(C)CCc2ncnc(N3CCOc4ccc(-c5ccc6nc[nH]c6c5)cc4C3)c2C1` [Compound 219, 7-(1H-benzimidazol-6-yl)-4-(6,6-dimethyl-5,6,7,8-tetrahydroquinazolin-4-yl)-2,3,4,5-tetrahydro-1,4-benzoxazepine], in assay [1], the IC50 is no more than 10 nM.
`CCN(CC)c1nc(N2CCOc3ccc(-c4ccc5nc(C)[nH]c5c4)cc3C2)c2ccccc2n1` [Compound 6]: the IC50 in assay [2] was no less than 2000 nM.
As for `Cn1ccc2cc(-c3ccc4c(c3)CN(c3ccnc5ccccc35)CCO4)ccc21` [Compound 133, 7-(1-methyl-1H-indol-5-yl)-4-quinolin-4-yl-2,3,4,5-tetrahydro-1,4-benzoxazepine], in assay [1], the concentration for half-maximal inhibition (IC50) lay in the range of 1000 to 2000 nM.
The same measure, in the same setting: with `CCNc1nc2ccc(-c3ccc4c(c3)CN(c3cc(C)nc5cc(F)ccc35)CCO4)cc2[nH]1` [Compound 641, N-ethyl-6-[4-(7-fluoro-2-methylquinolin-4-yl)-2,3,4,5-tetrahydro-1,4-benzoxazepin-7-yl]-1H-benzimidazol-2-amine] the figure was 50 to 250 nM.
Same read-out and setting: with `Cc1nc2ccc(-c3ccc4c(c3)CN(c3nc(C(C)(C)O)nc5c3CC(C)(C)CC5)CCO4)cc2[nH]1` [Compound 362, 2-{6,6-dimethyl-4-[7-(2-methyl-1H-benzimidazol-6-yl)-2,3-dihydro-1,4-benzoxazepin-4(5H)-yl]-5,6,7,8-tetrahydroquinazolin-2-yl}propan-2-ol] the figure was 50 to 250 nM; with `Cc1nc2cc(-c3ccc4c(c3)CN(c3nc(C5CCCN5)nc5c3CC(C)(C)CC5)CCO4)cnc2[nH]1` (stereo not shown) [Compound 474, 4-(6,6-dimethyl-2-pyrrolidin-2-yl-5,6,7,8-tetrahydroquinazolin-4-yl)-7-(2-methyl-3H-imidazo[4,5-b]pyridin-6-yl)-2,3,4,5-tetrahydro-1,4-benzoxazepine], no more than 10 nM; with `CCNc1nc2ccc(-c3ccc4c(c3)CN(c3nc(C)nc5cc(O)ccc35)CCO4)cc2[nH]1` [Compound 285, 4-{7-[2-(ethylamino)-1H-benzimidazol-6-yl]-2,3-dihydro-1,4-benzoxazepin-4(5H)-yl}-2-methylquinazolin-7-ol], 50 to 250 nM.
Same read-out and setting: with `Cc1nc2ccc(-c3ccc4c(c3)CN(c3ncnc5ccc(Br)cc35)CCO4)cc2[nH]1` [Compound 12, 4-(6-bromoquinazolin-4-yl)-7-(2-methyl-1H-benzimidazol-6-yl)-2,3,4,5-tetrahydro-1,4-benzoxazepine] the figure was no more than 10 nM; with `CC1(C)CCc2ncnc(N3CCOc4ccc(-c5cnc(NCc6ccccc6)c(NS(C)(=O)=O)c5)cc4C3)c2C1` [Compound 630, N-{5-[4-(6,6-dimethyl-5,6,7,8-tetrahydroquinazolin-4-yl)-2,3,4,5-tetrahydro-1,4-benzoxazepin-7-yl]-2-[(phethylmethyl)amino]pyridin-3-yl}methanesulfonamide], no less than 2000 nM.
As to `COC(=O)Nc1nc2ccc(-c3ccc4c(c3)CN(c3ncnc5c3CC(C)(C)CC5)CCO4)cc2[nH]1` [Compound 235, methyl {6-[4-(6,6-dimethyl-5,6,7,8-tetrahydroquinazolin-4-yl)-2,3,4,5-tetrahydro-1,4-benzoxazepin-7-yl]-1H-benzimidazol-2-yl}carbamate], the IC50 in assay [1] is 50 to 250 nM.
In the case of `Cc1nc2ccc(-c3ccc4c(c3)CN(c3ccncn3)CCO4)cc2[nH]1` [Compound 2, 7-(2-methyl-1H-benzimidazol-6-yl)-4-pyrimidin-4-yl-2,3,4,5-tetrahydro-1,4-benzoxazepine], the half-inhibitory concentration (IC50) in assay [1] was no less than 2000 nM.
As for `Cc1nc2cc(-c3ccc4c(c3)CN(c3nc(N)nc(C)c3Cc3ccc(F)cc3)CCO4)ccc2[nH]1` [Compound 660, 5-[(4-fluorophenyl)methyl]-4-methyl-6-[7-(2-methyl-1H-benzimidazol-5-yl)-2,3-dihydro-1,4-benzoxazepin-4(5H)-yl]pyrimidin-2-amine], the IC50 in assay [1] is no more than 10 nM.
On the same count and under the same terms, with `CC(C)(O)CCS(=O)(=O)c1cc(-c2ccc3c(c2)CN(c2ncnc4c2CC(C)(C)CC4)CCO3)cnc1N` [Compound 459, 4-({2-amino-5-[4-(6,6-dimethyl-5,6,7,8-tetrahydroquinazolin-4-yl)-2,3,4,5-tetrahydro-1,4-benzoxazepin-7-yl]pyridin-3-yl}sulfonyl)-2-methylbutan-2-ol] the figure was 50 to 250 nM.
For `Cc1nc2cc(-c3ccc4c(c3)CN(c3nc([C@@H]5CCCN5C(=O)OCc5ccccc5)nc5c3CC(C)(C)CC5)CCO4)cnc2[nH]1` [Compound 645, phenylmethyl (2S)-2-{6,6-dimethyl-4-[7-(2-methyl-3H-imidazo[4,5-b]pyridin-6-yl)-2,3-dihydro-1,4-benzoxazepin-4(5H)-yl]-5,6,7,8-tetrahydroquinazolin-2-yl}pyrrolidine-1-carboxylate], the IC50 in assay [2] was in the range of 1000 to 2000 nM.
Consider `Cc1nc2ccc(-c3ccc4c(c3)CN(c3ncnc5ccc(Cl)cc35)CCO4)cc2[nH]1` [Compound 13, 4-(6-chloroquinazolin-4-yl)-7-(2-methyl-1H-benzimidazol-6-yl)-2,3,4,5-tetrahydro-1,4-benzoxazepine], for which, in assay [1], the IC50 was no more than 10 nM.
As for `Cc1nc2ccc(-c3ccc4c(c3)CN(c3ncnc5c(Br)cccc35)CCO4)cc2[nH]1` [Compound 25, 4-(8-bromoquinazolin-4-yl)-7-(2-methyl-1H-benzimidazol-6-yl)-2,3,4,5-tetrahydro-1,4-benzoxazepine], in assay [1], the half-inhibitory concentration (IC50) was 50 to 250 nM.
